# ChEMBL document CHEMBL2321853, “Novel acylethanolamide derivatives that modulate body weight through enhancement of hypothalamic pro-opiomelanocortin (POMC) and/or decreased neuropeptide Y (NPY)” (J Med Chem, 2013)
# Active and inactive are the calls of the source. The rule behind the calls is not given here.
# What was measured:
# [1] = biological target: Transient receptor potential cation channel subfamily V member 1 (Homo sapiens, UniProt Q8NER1); experiment: Agonist activity at TRPV1 receptor (unknown origin)
# Sequence of Transient receptor potential cation channel subfamily V member 1 (Q8NER1 whole entry): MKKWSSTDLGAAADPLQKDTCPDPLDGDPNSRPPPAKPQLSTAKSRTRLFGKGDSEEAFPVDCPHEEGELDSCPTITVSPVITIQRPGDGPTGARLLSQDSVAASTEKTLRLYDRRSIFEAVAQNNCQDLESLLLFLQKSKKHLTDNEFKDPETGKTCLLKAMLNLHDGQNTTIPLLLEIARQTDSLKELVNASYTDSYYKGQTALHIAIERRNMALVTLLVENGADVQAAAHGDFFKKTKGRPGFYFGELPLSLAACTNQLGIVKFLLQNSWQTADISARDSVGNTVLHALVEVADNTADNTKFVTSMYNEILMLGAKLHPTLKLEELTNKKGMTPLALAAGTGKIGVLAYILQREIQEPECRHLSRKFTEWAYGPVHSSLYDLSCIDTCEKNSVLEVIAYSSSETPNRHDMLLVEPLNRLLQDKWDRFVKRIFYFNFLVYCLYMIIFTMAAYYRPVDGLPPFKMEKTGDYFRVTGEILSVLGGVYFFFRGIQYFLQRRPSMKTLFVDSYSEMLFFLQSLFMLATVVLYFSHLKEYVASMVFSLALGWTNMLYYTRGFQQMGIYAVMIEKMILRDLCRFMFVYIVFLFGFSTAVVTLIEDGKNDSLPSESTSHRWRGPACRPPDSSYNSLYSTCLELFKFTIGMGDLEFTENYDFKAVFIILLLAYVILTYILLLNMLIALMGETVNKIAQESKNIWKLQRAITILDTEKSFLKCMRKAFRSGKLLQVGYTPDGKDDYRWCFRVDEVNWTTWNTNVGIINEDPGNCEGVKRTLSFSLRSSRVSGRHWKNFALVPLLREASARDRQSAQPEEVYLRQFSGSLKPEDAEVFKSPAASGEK
# Mus musculus [2] = experiment: Antiobesity activity in Sabra mouse assessed as reduction in body weight at 1 mg/kg, ip administered on day 0, 10, 11, 12, 24, 29 measured on day 39 relative to control; type: functional; set-up: scale not given: the % may be the effect or the level left; details: route intraperitoneal
# Mus musculus [3] = experiment: Antiobesity activity in Sabra mouse assessed as reduction in body weight at 1 mg/kg, ip administered on day 0, 10, 11, 12, 24, 29 measured on day 24 relative to control; type: functional; set-up: scale not given: the % may be the effect or the level left; details: route intraperitoneal
# Mus musculus [4] = experiment: Antiobesity activity in Sabra mouse assessed as reduction in body weight at 1 mg/kg, ip administered on day 0, 10, 11, 12, 24, 29 measured on day 22 relative to control; type: functional; set-up: scale not given: the % may be the effect or the level left; details: route intraperitoneal
# Mus musculus [5] = experiment: Antiobesity activity in Sabra mouse assessed as reduction in body weight at 1 mg/kg, ip administered on day 0, 10, 11, 12, 24, 29 measured on day 36 relative to control; type: functional; set-up: scale not given: the % may be the effect or the level left; details: route intraperitoneal
# Mus musculus [6] = experiment: Antiobesity activity in Sabra mouse assessed as reduction in body weight at 1 mg/kg, ip administered on day 0, 10, 11, 12, 24, 29 measured on day 26 relative to control; type: functional; set-up: scale not given: the % may be the effect or the level left; details: route intraperitoneal
# Mus musculus [7] = experiment: Antiobesity activity in Sabra mouse assessed as reduction in body weight at 1 mg/kg, ip administered on day 0, 10, 11, 12, 24, 29 measured on day 33 relative to control; type: functional; set-up: scale not given: the % may be the effect or the level left; details: route intraperitoneal
# Mus musculus [8] = experiment: Antiobesity activity in Sabra mouse assessed as reduction in body weight at 1 mg/kg, ip administered on day 0, 10, 11, 12, 24, 29 measured on day 12 relative to control; type: functional; set-up: scale not given: the % may be the effect or the level left; details: route intraperitoneal
# Mus musculus [9] = experiment: Antiobesity activity in Sabra mouse assessed as reduction in body weight at 1 mg/kg, ip administered on day 0, 10, 11, 12, 24, 29 measured on day 19 relative to control; type: functional; set-up: scale not given: the % may be the effect or the level left; details: route intraperitoneal
# Mus musculus [10] = experiment: Antiobesity activity in Sabra mouse assessed as reduction in body weight at 1 mg/kg, ip administered on day 0, 10, 11, 12, 24, 29 measured on day 29 relative to control; type: functional; set-up: scale not given: the % may be the effect or the level left; details: route intraperitoneal
# [11] = biological target: T1, Glucose-dependent insulinotropic receptor (Homo sapiens, UniProt Q8TDV5); experiment: Agonist activity at recombinant GPR119 receptor (unknown origin)
# T1 sequence (Q8TDV5 whole entry): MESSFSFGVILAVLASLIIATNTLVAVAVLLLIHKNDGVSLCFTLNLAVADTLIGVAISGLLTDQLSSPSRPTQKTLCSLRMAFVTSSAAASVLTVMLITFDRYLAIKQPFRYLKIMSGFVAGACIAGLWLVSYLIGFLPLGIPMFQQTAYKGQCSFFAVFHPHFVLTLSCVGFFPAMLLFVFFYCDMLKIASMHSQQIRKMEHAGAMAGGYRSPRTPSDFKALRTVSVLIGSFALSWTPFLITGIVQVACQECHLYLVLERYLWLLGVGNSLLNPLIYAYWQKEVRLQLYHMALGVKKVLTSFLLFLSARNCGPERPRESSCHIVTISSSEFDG
# Mus musculus [12] = experiment: Increase in ALT levels in Sabra mouse at 1 mg/kg, ip administered on day 8, 12 and 43 measured on day 74; type: ADME, organism-based; set-up: dose 1 mg/kg, route intraperitoneal; details: in vivo
# Mus musculus [13] = experiment: Antiobesity activity in C57BL/6 mouse assessed as change in AST level at 5 mg/kg, ip measured on day 36 (reference value: 146.7 IU/L); type: functional; details: route intraperitoneal
# Mus musculus [14] = experiment: Antiobesity activity in Sabra mouse assessed as change in body weight at 1 mg/kg, ip administered on day 8, 12 and 43 measured on day 36 relative to control; type: functional; details: route intraperitoneal
# Mus musculus [15] = experiment: Antiobesity activity in C57BL/6 mouse assessed as change in triglyceride level at 5 mg/kg, ip measured on day 36 (reference value: 0.92 mg/dL); type: functional; details: route intraperitoneal
# Mus musculus [16] = experiment: Antiobesity activity in C57BL/6 mouse assessed as weight loss at 5 mg/kg, ip administered on day 1, 4, 5, 7, 17, 15, 19 measured on day 8 relative to control; type: functional; details: route intraperitoneal
# Mus musculus [17] = experiment: Antiobesity activity in C57BL/6 mouse assessed as change in glucose level in blood at 5 mg/kg, ip administered on day 1, 4, 5, 7, 17, 15, 19 measured on day 9 relative to control; type: functional; details: route intraperitoneal
# Mus musculus [18] = experiment: Antiobesity activity in Sabra mouse assessed as change in body weight at 1 mg/kg, ip administered on day 8, 12 and 43 measured on day 50 relative to control; type: functional; details: route intraperitoneal
# Mus musculus [19] = experiment: Antiobesity activity in C57BL/6 mouse assessed as change in glucose level in blood at 5 mg/kg, ip administered on day 1, 4, 5, 7, 17, 15, 19 measured on day 19 relative to control; type: functional; details: route intraperitoneal
# Mus musculus [20] = experiment: Antiobesity activity in Sabra mouse assessed as change in body weight at 1 mg/kg, ip administered on day 8, 12 and 43 measured on day 29 relative to control; type: functional; details: route intraperitoneal
# Mus musculus [21] = experiment: Antiobesity activity in C57BL/6 mouse assessed as change in glucose level in blood at 5 mg/kg, ip administered on day 1, 4, 5, 7, 17, 15, 19 measured on day 15 relative to control; type: functional; details: route intraperitoneal
# Mus musculus [22] = experiment: Antiobesity activity in C57BL/6 mouse assessed as weight loss at 5 mg/kg, ip administered on day 1, 4, 5, 7, 17, 15, 19 measured on day 19 relative to control; type: functional; details: route intraperitoneal
# Mus musculus [23] = experiment: Antiobesity activity in C57BL/6 mouse assessed as weight loss at 5 mg/kg, ip administered on day 1, 4, 5, 7, 17, 15, 19 measured on day 15 relative to control; type: functional; details: route intraperitoneal
# Mus musculus [24] = experiment: Antiobesity activity in C57BL/6 mouse assessed as change in glucose level in blood at 5 mg/kg, ip administered on day 1, 4, 5, 7, 17, 15, 19 measured on day 11 relative to control; type: functional; details: route intraperitoneal
# Mus musculus [25] = experiment: Antiobesity activity in Sabra mouse assessed as change in body weight at 1 mg/kg, ip administered on day 8, 12 and 43 measured on day 54 relative to control; type: functional; details: route intraperitoneal
# Mus musculus [26] = experiment: Antiobesity activity in Sabra mouse assessed as change in body weight at 1 mg/kg, ip administered on day 8, 12 and 43 measured on day 33 relative to control; type: functional; details: route intraperitoneal
# Mus musculus [27] = experiment: Antiobesity activity in Sabra mouse assessed as change in body weight at 1 mg/kg, ip administered on day 8, 12 and 43 measured on day 15 relative to control; type: functional; details: route intraperitoneal
# Mus musculus [28] = experiment: Antiobesity activity in C57BL/6 mouse assessed as weight loss at 5 mg/kg, ip administered on day 1, 4, 5, 7, 17, 15, 19 measured on day 17 relative to control; type: functional; details: route intraperitoneal
# Mus musculus [29] = experiment: Antiobesity activity in Sabra mouse assessed as change in body weight at 1 mg/kg, ip administered on day 8, 12 and 43 measured on day 5 relative to control; type: functional; details: route intraperitoneal
# Mus musculus [30] = experiment: Antiobesity activity in C57BL/6 mouse assessed as change in glucose level in blood at 5 mg/kg, ip administered on day 1, 4, 5, 7, 17, 15, 19 measured on day 5 relative to control; type: functional; details: route intraperitoneal
# Mus musculus [31] = experiment: Antiobesity activity in Sabra mouse assessed as change in body weight at 1 mg/kg, ip administered on day 8, 12 and 43 measured on day 8 relative to control; type: functional; details: route intraperitoneal
# Mus musculus [32] = experiment: Antiobesity activity in C57BL/6 mouse assessed as weight loss at 5 mg/kg, ip administered on day 1, 4, 5, 7, 17, 15, 19 measured on day 12 relative to control; type: functional; details: route intraperitoneal
# Mus musculus [33] = experiment: Antiobesity activity in Sabra mouse assessed as change in body weight at 1 mg/kg, ip administered on day 8, 12 and 43 measured on day 12 relative to control; type: functional; details: route intraperitoneal
# Mus musculus [34] = experiment: Antiobesity activity in Sabra mouse assessed as change in body weight at 1 mg/kg, ip administered on day 8, 12 and 43 measured on day 43 relative to control; type: functional; details: route intraperitoneal
# Mus musculus [35] = experiment: Antiobesity activity in C57BL/6 mouse assessed as change in cholesterol level at 5 mg/kg, ip measured on day 36 (reference value: 86.58 mg/dL); type: functional; details: route intraperitoneal
# Mus musculus [36] = experiment: Effect on neurological score in Sabra mouse assessed as change in neurological score at 1 mg/kg, ip administered on day 8, 12 and 43 by NSS method; type: functional, organism-based; set-up: dose 1 mg/kg
# Mus musculus [37] = experiment: Antiobesity activity in C57BL/6 mouse assessed as weight loss at 5 mg/kg, ip administered on day 1, 4, 5, 7, 17, 15, 19 measured on day 11 relative to control; type: functional; details: route intraperitoneal
# Mus musculus [38] = experiment: Antiobesity activity in C57BL/6 mouse assessed as weight loss at 5 mg/kg, ip administered on day 1, 4, 5, 7, 17, 15, 19 measured on day 5 relative to control; type: functional; details: route intraperitoneal
# Mus musculus [39] = experiment: Antiobesity activity in C57BL/6 mouse assessed as weight loss at 5 mg/kg, ip administered on day 1, 4, 5, 7, 17, 15, 19 measured on day 9 relative to control; type: functional; details: route intraperitoneal
# Mus musculus [40] = experiment: Antiobesity activity in Sabra mouse assessed as change in body weight at 1 mg/kg, ip administered on day 8, 12 and 43 measured on day 71 relative to control; type: functional; details: route intraperitoneal
# Mus musculus [41] = experiment: Antiobesity activity in C57BL/6 mouse assessed as change in glucose level in blood at 5 mg/kg, ip administered on day 1, 4, 5, 7, 17, 15, 19 measured on day 3 relative to control; type: functional; details: route intraperitoneal
# Mus musculus [42] = experiment: Enhancement of cognitive function in Sabra mouse at 1 mg/kg, ip administered on day 8, 12 and 43 by eight-arm maze test; type: functional, organism-based; set-up: dose 1 mg/kg
# Mus musculus [43] = experiment: Antiobesity activity in C57BL/6 mouse assessed as weight loss at 5 mg/kg, ip administered on day 1, 4, 5, 7, 17, 15, 19 measured on day 3 relative to control; type: functional; details: route intraperitoneal
smiles,measurement,setting,value
CCCCCCCC/C=C\CCCCCCCC(=O)NCCO [OLEOYLETHANOLAMIDE],EC50,[1],40 nM
same,Activity,Mus musculus [2],-3.42%
same,Activity,Mus musculus [3],-0.18%
same,Activity,Mus musculus [4],-1.17%
same,Activity,Mus musculus [5],-2.57%
same,Activity,Mus musculus [6],1.43%
same,Activity,Mus musculus [7],-0.15%
same,Activity,Mus musculus [8],-0.23%
same,Activity,Mus musculus [9],-1.17%
same,Activity,Mus musculus [10],-0.2%
same,EC50,[11],3200 nM
Cc1c(C(=O)NN2CCCCC2)nn(-c2ccc(Cl)cc2Cl)c1-c1ccc(Cl)cc1 [RIMONABANT],Activity,Mus musculus [12],Active
same,Activity,Mus musculus [13],125.3 IU/L
same,Activity,Mus musculus [14],-2.2%
same,Activity,Mus musculus [15],1.286 mg/dL
same,Activity,Mus musculus [16],-3.5%
same,Activity,Mus musculus [17],-16.2%
same,Activity,Mus musculus [18],-2.4%
same,Activity,Mus musculus [19],19.8%
same,Activity,Mus musculus [20],1.5%
same,Activity,Mus musculus [21],-15.5%
same,Activity,Mus musculus [22],-4.5%
same,Activity,Mus musculus [23],-4.5%
same,Activity,Mus musculus [24],-20.7%
same,Activity,Mus musculus [25],-3.5%
same,Activity,Mus musculus [26],0.8%
same,Activity,Mus musculus [27],1.6%
same,Activity,Mus musculus [28],-1.9%
same,Activity,Mus musculus [29],0.3%
same,Activity,Mus musculus [30],-11%
same,Activity,Mus musculus [31],3.2%
same,Activity,Mus musculus [32],-4.5%
same,Activity,Mus musculus [33],0.9%
same,Activity,Mus musculus [34],-3.1%
same,Activity,Mus musculus [35],94.16 mg/dL
same,Activity,Mus musculus [36],inactive
same,Activity,Mus musculus [37],-3.1%
same,Activity,Mus musculus [38],-3.2%
same,Activity,Mus musculus [39],-4.6%
same,Activity,Mus musculus [40],-0.9%
same,Activity,Mus musculus [41],0.86%
same,Activity,Mus musculus [42],inactive
same,Activity,Mus musculus [43],-0.6%
